Data from PubChem BioAssay (NCI).
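Five concentrations, 48 hours, 96-well plates. At the GI50, growth is halved. TGI: total growth inhibition.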

Columns and labels:
Assay in all cases: inhibition of tumour cell growth, NCI panel, 48 h
[1] = system: BT-549 breast
[2] = system: COLO 205 colon
[3] = system: DU-145 prostate
[4] = system: KM12 colon
[5] = system: MDA-MB-231 breast
[6] = system: MOLT-4 leukemia
[7] = system: NCI-H23 lung
[8] = system: NCI/ADR-RES ovarian
[9] = system: SN12C renal
[10] = system: U251 CNS

Compound	GI50 [1]	TGI [1]	GI50 [2]	TGI [2]	GI50 [3]	TGI [3]	GI50 [4]	TGI [4]	GI50 [5]	TGI [5]	GI50 [6]	TGI [6]	GI50 [7]	TGI [7]	GI50 [8]	TGI [8]	GI50 [9]	TGI [9]	GI50 [10]	TGI [10]
O=C(O)CSc1cc(NS(=O)(=O)c2ccc(Br)cc2)c2ccccc2c1O	16.2 µM	30.5 µM	13.1 µM	28.4 µM	16.5 µM	30.1 µM	11.6 µM	25.7 µM	2.72 µM	8.08 µM	3.08 µM	> 23.3 µM	7.25 µM	38 µM	3.11 µM	13.8 µM	2.27 µM	5.44 µM	15 µM	30.9 µM
O=C1NC(=O)N(S(=O)(=O)c2cc(C(=O)Nc3ccc(Cl)cc3)c(Cl)cc2S)S(=O)(=O)N1	20.5 µM	45.7 µM	11 µM	> 100 µM	16.5 µM	31.2 µM	18.6 µM	34.8 µM	25.2 µM	74.5 µM	19.4 µM	47.6 µM	18.5 µM	34.3 µM	28.1 µM	85.6 µM	21.9 µM	50.2 µM	15.1 µM	34.3 µM
O=C1C[C@@H]2OCC=C3C[N+]4([O-])CC[C@]56c7ccccc7N1[C@H]5[C@H]2[C@H]3C[C@@H]64 (some centres undefined)			> 100 µM	> 100 µM	> 100 µM	> 100 µM	> 100 µM	> 100 µM	> 100 µM	> 100 µM	> 100 µM	> 100 µM	> 100 µM	> 100 µM	> 100 µM	> 100 µM	> 100 µM	> 100 µM	> 100 µM	> 100 µM
CC1(C)CC2=NO[Se]3=C2C(=NO3)C1		7.28 µM		3.73 µM		10.4 µM		13.8 µM		16.4 µM		9.41 µM		5.65 µM				13 µM		18.7 µM
O=[N+]([O-])c1ccc(/C=C(/c2ccc([N+](=O)[O-])o2)S(=O)(=O)c2ccccc2)cc1		> 100 µM		> 100 µM		> 100 µM		> 100 µM		88.2 µM		37.5 µM		> 100 µM		> 100 µM				> 100 µM
NS(=O)(=O)c1cc2c(cc1Cl)NCNS2(=O)=O				> 100 µM		> 100 µM		> 100 µM		> 100 µM		> 100 µM		> 100 µM		> 100 µM		> 100 µM		> 100 µM
O=C(O)c1cn(C2CC2)c2cc(N3CCN(C(=O)N(c4ccccc4)c4nc(-c5ccccc5)cs4)CC3)c(F)cc2c1=O	0.349 µM	6.81 µM			0.521 µM	> 100 µM	0.369 µM	> 100 µM									0.308 µM	> 100 µM	0.381 µM	> 100 µM
c1cc(OCCCCCOc2cccc(-c3nc4ccccc4[nH]3)c2)cc(-c2nc3ccccc3[nH]2)c1	1.72 µM	5 µM	1.47 µM	2.79 µM	3.27 µM	> 100 µM	2.69 µM	> 100 µM	4.08 µM	30.9 µM					1.99 µM	7.91 µM	4.61 µM	> 100 µM	3.07 µM	> 100 µM
O=C(CCN1CCOCC1)Nc1ccc(Cn2nnc3c2C(=O)c2nnn(Cc4ccc(NC(=O)CCN5CCOCC5)cc4)c2C3=O)cc1	2.87 µM	8.77 µM	0.645 µM	2.13 µM	18.6 µM	> 52.4 µM					0.763 µM	3.48 µM	1.43 µM	5.52 µM	> 100 µM	> 100 µM	0.52 µM	2 µM	4.25 µM	18.4 µM
CN(C)c1ccc(/C=N/N=C(\C#N)[S][Sn]([Cl])([c]2ccccc2)[c]2ccccc2)cc1	1.57 µM	3.04 µM	1.64 µM	3.52 µM			1.8 µM	3.94 µM	1.54 µM	3.19 µM	0.876 µM	5.32 µM	1.44 µM	3.21 µM	2.01 µM	4.76 µM	1.59 µM	3.12 µM	1.78 µM	3.2 µM
CCN1CCN(CC(=O)Nc2nc3ccc(NCc4ccc(Br)cc4)cc3s2)CC1					5.14 µM	> 100 µM	3.25 µM	> 100 µM	1.89 µM	4.15 µM			3.22 µM	> 100 µM	3.3 µM	> 100 µM	2.73 µM	> 100 µM	1.92 µM	3.79 µM
CN(C)CCCC1(c2ccc(F)cc2)OCc2cc(-c3csc4ccccc34)ccc21 (centres undefined)			1.73 µM	3.79 µM	1.72 µM	3.15 µM	1.71 µM	3.16 µM	1.34 µM	2.68 µM	1.79 µM	3.52 µM	1.55 µM	3.02 µM	1.59 µM	3.07 µM	1.63 µM	3.13 µM	1.69 µM	3.39 µM
O=C(NO)c1ccc(CNc2cccc3nc(C4CC4)n(-c4ccccc4)c(=O)c23)cc1	3.24 µM	14.3 µM	2.22 µM	5.59 µM	2.52 µM	13.7 µM			2.31 µM	7.33 µM	2.79 µM	23.3 µM			1.28 µM	6.45 µM	2.4 µM	10.9 µM	1.63 µM	3.23 µM
COc1cc2c(Oc3ccc(-c4cnc(Nc5ccc(F)cc5)n(C)c4=O)cc3F)ccnc2cc1OCCCN1CCOCC1	1.86 µM	3.49 µM			1.56 µM	3.17 µM			1.4 µM	2.93 µM			1.15 µM	2.75 µM	1.94 µM	6.75 µM	0.528 µM	2.27 µM	1.66 µM	3.2 µM
CN(C)[C@@H]1C(=O)C(C(=O)NCc2nc3[nH]cnc(=S)c3[nH]2)=C(O)[C@@]2(O)C(=O)C3=C(O)c4c(O)cccc4[C@@](C)(O)[C@H]3C[C@@H]12	> 100 µM	> 100 µM	3.87 µM	> 100 µM	4.43 µM	> 100 µM	5.01 µM	> 100 µM			5.04 µM	> 100 µM	8.85 µM	> 100 µM	6.13 µM	> 100 µM	59.9 µM	> 100 µM	> 100 µM	> 100 µM
COc1ccc(-n2c(=O)c3ccccc3n(Cc3ccc(C(=O)NO)cc3)c2=O)cc1	2.08 µM	4.91 µM	1.75 µM	4.22 µM	3.24 µM	> 100 µM	1.77 µM	4.08 µM	3.06 µM	8.63 µM	3.21 µM	> 100 µM	1.78 µM	4.29 µM	18.2 µM	> 100 µM			1.78 µM	3.58 µM
COc1cc2c(cc1C)NC(=O)/C2=C\c1ccc(Oc2ccccc2)cc1	14.2 µM	28.3 µM	20.7 µM	36.9 µM	13.2 µM	26 µM	13.6 µM	30.4 µM	18.2 µM	37.5 µM			15.6 µM	32.2 µM	17.4 µM	36.5 µM	14.4 µM	27.5 µM	12.8 µM	25.4 µM
COc1ccc(-c2c(Nc3ccccn3)nc3c(C4=CCCCC4)c(-c4ccccc4)[nH]n3c2=O)cc1	1.88 µM	17.6 µM	2.34 µM	> 100 µM	3.62 µM	> 100 µM	3.7 µM	> 100 µM	2.73 µM	16.5 µM			4.17 µM	24.1 µM	2.57 µM	> 100 µM	2.7 µM	> 100 µM	1.95 µM	17.9 µM
O=S(=O)(O)C(c1ccccc1)C(O)c1ccccc1 (centres undefined)		> 100 µM		> 100 µM		> 100 µM		> 100 µM		> 100 µM				> 100 µM		> 100 µM		> 100 µM		> 100 µM
CC(=O)O[C@H]1C[C@@H]2[C@@]3(C)CC[C@H]4C[C@@]4(C)[C@@H]3CC[C@@]2(C)C2=CCC3=C(COC3=O)[C@]21C			34 µM	> 100 µM	15.6 µM	38.5 µM	18.7 µM	43.6 µM	15.8 µM	35.9 µM	33.5 µM	> 100 µM	20.1 µM	49.9 µM	16.9 µM	36.3 µM	18.7 µM	38.3 µM	17.4 µM	36.3 µM
C=CCN(CC=C)Cc1c[nH]c2ccccc12	2.31 µM	8.33 µM	18.4 µM	> 100 µM			32.2 µM	> 100 µM	23.4 µM	54.8 µM	72.7 µM	> 100 µM	14 µM	52.8 µM	18.3 µM	43.8 µM	16 µM	41.8 µM	13.2 µM	31.2 µM
